Assays:
Rattus norvegicus [1] = species: Rattus norvegicus; assay: Induction of stimulus generalization in Sprague-Dawley rat trained to discriminate S(-)MCAT assessed as appropriate responding level to training drug by two lever method; type: functional
Rattus norvegicus [2] = species: Rattus norvegicus; assay: Induction of stimulus generalization in Sprague-Dawley rat trained to discriminate S(+)AMPH assessed as appropriate responding level to training drug by two lever method; type: functional
Rattus norvegicus [3] = species: Rattus norvegicus; assay: Induction of stimulus generalization in rat trained to discriminate S(+)methamphetamine assessed as appropriate responding level to training drug by two lever method; type: functional
Rattus norvegicus [4] = species: Rattus norvegicus; assay: Induction of stimulus generalization in Sprague-Dawley rat trained to discriminate TDIQ assessed as appropriate responding level to training drug by two lever method; type: functional
[5] = biological target: 5-hydroxytryptamine receptor 6 (Homo sapiens, UniProt P50406); assay: Displacement of [3H]LSD from human 5HT6 receptor expressed in HEK293 cells; type: cell-based
5-hydroxytryptamine receptor 6, sequence (P50406 whole entry): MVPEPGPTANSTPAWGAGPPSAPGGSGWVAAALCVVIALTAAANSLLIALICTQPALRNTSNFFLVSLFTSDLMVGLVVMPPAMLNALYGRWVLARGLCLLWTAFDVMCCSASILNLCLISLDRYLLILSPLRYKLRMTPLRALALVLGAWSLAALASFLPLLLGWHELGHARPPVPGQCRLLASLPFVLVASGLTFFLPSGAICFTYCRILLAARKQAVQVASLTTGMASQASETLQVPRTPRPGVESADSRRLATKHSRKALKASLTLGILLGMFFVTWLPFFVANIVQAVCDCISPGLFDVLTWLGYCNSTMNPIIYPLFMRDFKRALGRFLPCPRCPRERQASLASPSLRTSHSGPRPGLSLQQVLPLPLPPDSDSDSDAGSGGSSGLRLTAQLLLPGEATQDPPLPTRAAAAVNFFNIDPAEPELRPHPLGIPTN

[6] = biological target: Sodium-dependent dopamine transporter (Rattus norvegicus, UniProt P23977); assay: Inhibition of DAT in Sprague-Dawley rat synaptosomes assessed as reduction in [3H]dopamine uptake by liquid scintillation counting method; type: subcellular
Sodium-dependent dopamine transporter, sequence (P23977 whole entry): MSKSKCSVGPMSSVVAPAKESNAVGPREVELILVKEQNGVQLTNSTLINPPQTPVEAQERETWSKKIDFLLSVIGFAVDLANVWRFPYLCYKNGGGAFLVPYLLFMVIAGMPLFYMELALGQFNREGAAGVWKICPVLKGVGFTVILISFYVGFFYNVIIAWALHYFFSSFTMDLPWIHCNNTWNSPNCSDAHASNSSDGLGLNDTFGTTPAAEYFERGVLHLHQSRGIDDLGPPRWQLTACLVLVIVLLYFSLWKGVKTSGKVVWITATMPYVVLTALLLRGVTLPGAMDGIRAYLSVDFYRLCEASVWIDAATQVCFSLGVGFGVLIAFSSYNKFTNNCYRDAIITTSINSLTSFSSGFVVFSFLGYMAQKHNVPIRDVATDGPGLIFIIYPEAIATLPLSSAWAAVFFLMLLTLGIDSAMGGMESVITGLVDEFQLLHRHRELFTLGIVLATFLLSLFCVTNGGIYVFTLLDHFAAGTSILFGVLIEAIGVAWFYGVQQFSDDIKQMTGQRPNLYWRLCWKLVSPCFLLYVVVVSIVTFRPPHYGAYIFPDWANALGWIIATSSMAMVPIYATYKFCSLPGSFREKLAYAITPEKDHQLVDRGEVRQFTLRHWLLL

[7] = biological target: T1, 5-hydroxytryptamine receptor 2A (Rattus norvegicus, UniProt P14842); assay: Displacement of [125I]DOI from rat cortex 5HT2A after 1 hr by beta scintillation counting method
T1 sequence (P14842 whole entry): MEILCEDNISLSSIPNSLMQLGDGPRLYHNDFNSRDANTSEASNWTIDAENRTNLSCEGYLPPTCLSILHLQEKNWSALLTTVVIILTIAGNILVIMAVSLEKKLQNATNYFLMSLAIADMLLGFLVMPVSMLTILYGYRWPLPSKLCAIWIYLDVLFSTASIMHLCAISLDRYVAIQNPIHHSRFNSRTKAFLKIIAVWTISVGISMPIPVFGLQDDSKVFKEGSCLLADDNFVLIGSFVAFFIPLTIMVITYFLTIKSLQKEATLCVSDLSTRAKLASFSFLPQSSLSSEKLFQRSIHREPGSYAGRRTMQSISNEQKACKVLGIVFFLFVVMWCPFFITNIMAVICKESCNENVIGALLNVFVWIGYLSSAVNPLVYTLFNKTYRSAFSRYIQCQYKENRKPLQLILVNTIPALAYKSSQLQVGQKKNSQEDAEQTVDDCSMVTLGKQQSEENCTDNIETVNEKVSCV

Rattus norvegicus [8] = assay: In vivo agonist activity at 5HT2A in ip dosed DOM-trained Sprague-Dawley rat assessed as increase in discriminative stimulus pretreated before testing; type: functional
Rhesus monkey = assay: In vivo agonist activity at 5HT2A in DOM-trained rhesus monkey assessed as increase in discriminative stimulus administered subcutaneously pretreated before testing; type: functional; conditions: Macaca mulatta, sc
[9] = biological target: Trace amine-associated receptor 1 (Rattus norvegicus, UniProt Q923Y9); assay: Agonist activity at rat N-terminal FLAG-tagged TAAR1 expressed in HEK293 cells assessed as [3H]cAMP accumulation measured after 1 hr; type: functional, cell-based
Trace amine-associated receptor 1, sequence (Q923Y9 whole entry): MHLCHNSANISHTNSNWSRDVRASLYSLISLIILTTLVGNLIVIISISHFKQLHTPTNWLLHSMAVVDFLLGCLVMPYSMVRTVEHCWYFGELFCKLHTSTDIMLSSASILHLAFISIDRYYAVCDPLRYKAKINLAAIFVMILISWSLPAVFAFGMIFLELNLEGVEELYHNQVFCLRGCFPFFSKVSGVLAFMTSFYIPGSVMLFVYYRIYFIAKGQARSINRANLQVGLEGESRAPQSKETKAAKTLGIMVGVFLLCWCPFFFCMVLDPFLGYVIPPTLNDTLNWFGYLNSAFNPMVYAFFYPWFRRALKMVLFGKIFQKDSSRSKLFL

[10] = biological target: T1, 5-hydroxytryptamine receptor 2A; assay: Displacement of [3H]ketanserin from 5HT2A in Sprague-Dawley rat cortex membranes measured after 15 mins; type: cell membranes
[11] = biological target: T2, 5-hydroxytryptamine receptor 1A (Homo sapiens, UniProt P08908); assay: Binding affinity to 5-HT1A receptor (unknown origin)
T2 sequence (P08908 whole entry): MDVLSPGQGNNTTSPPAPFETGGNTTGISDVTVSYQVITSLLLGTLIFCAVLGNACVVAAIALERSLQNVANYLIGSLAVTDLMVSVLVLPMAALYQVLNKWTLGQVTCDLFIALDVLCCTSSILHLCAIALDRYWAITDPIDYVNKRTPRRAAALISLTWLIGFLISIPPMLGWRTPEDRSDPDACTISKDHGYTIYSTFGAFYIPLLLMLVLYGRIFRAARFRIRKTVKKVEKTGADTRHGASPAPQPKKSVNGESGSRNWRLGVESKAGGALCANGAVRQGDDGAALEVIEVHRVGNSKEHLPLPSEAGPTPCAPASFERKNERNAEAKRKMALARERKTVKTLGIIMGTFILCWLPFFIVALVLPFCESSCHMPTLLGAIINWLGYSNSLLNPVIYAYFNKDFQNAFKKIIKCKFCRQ

[12] = biological target: T3, Alpha-2A adrenergic receptor (Homo sapiens, UniProt P08913); assay: Binding affinity to alpha-2A receptor (unknown origin)
T3 sequence (P08913 whole entry): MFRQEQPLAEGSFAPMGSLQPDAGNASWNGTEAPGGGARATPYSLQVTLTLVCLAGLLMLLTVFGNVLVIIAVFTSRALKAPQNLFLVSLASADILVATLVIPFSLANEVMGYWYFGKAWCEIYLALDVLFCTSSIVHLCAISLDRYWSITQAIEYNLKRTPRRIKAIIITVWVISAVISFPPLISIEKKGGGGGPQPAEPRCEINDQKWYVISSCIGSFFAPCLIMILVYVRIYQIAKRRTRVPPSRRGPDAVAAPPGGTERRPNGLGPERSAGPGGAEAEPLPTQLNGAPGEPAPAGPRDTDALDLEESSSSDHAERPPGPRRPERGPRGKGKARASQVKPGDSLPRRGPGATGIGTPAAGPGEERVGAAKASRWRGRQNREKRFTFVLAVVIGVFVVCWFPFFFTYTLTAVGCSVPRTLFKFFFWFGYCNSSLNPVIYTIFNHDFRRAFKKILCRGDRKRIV

[13] = biological target: T4, Alpha-2C adrenergic receptor (Homo sapiens, UniProt P18825); assay: Binding affinity to alpha-2C receptor (unknown origin)
T4 sequence (P18825 whole entry): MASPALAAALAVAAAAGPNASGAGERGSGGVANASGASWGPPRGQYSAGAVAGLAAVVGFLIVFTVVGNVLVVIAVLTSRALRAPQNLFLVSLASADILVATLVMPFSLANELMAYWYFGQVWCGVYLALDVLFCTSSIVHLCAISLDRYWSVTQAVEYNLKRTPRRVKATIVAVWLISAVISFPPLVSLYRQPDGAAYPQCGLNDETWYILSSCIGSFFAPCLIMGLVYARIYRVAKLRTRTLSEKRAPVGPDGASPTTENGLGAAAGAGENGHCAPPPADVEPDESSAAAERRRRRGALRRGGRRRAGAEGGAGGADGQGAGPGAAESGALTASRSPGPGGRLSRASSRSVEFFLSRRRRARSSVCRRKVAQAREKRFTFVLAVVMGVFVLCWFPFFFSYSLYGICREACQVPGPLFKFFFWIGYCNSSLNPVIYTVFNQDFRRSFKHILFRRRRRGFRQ

[14] = biological target: T5, Alpha-2B adrenergic receptor (Homo sapiens, UniProt P18089); assay: Binding affinity to alpha-2B receptor (unknown origin)
T5 sequence (P18089 whole entry): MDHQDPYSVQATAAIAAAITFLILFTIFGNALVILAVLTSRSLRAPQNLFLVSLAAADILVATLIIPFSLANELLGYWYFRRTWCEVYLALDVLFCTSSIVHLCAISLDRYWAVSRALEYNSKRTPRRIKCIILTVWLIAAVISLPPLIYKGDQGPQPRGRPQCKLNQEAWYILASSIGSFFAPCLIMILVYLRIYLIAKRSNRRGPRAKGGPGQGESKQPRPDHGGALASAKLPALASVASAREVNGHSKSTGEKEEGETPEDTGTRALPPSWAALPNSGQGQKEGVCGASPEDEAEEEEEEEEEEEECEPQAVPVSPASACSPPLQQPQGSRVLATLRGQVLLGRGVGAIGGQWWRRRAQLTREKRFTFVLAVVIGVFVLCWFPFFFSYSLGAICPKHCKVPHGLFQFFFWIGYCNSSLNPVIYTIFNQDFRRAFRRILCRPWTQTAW

Mus musculus = assay: Anxiolytic-like activity in iv dosed ICR mouse assessed as increase in marbles left uncovered measured after 30 mins by marble burying assay; type: functional; conditions: 0.5 h

## COC(=O)[C@H]1[C@@H](OC(=O)c2ccccc2)C[C@@H]2CC[C@H]1N2C [COCAINE]
Rattus norvegicus [1]
  ED50: 1.47 mg/kg
Rattus norvegicus [2]
  ED50: 5.63 mg/kg
Rattus norvegicus [3]
  ED50: 3.68 to 6.68 mg/kg
Rattus norvegicus [4]
  ED50: 1.5 mg/kg

## NC1CCc2c(cccc2NS(=O)(=O)c2ccccc2)C1 (stereo not drawn)
[5]
  Ki: 49 nM

## CCC[C@@H](C(=O)c1ccc2c(c1)OCO2)N1CCCC1
[6]
  IC50: 2.1 nM

## C[C@H](N)Cn1ncc2ccc3c(c21)CCCO3
[7]
  Ki: 0.13 nM
Rattus norvegicus [8]
  ED50: 0.05 mg/kg
Rhesus monkey
  ED50: 0.04 mg/kg

## NCCc1ccccc1 [PHENETHYLAMINE]
[9]
  EC50: 240 nM

## COc1cc(CC(C)N(C)C)c(OC)cc1Br (stereo not drawn)
[10]
  Ki: 380 nM

## CCCNCCc1ccccc1O
[11]
  Ki: > 1000 nM

## NCCc1ccc(S(=O)(=O)n2ccc3ccccc32)cc1
[5]
  Ki: 2.5 nM

## c1c2c(cc3c1OCO3)CNCC2
[12]
  Ki: < 100 nM
[13]
  Ki: < 100 nM
[14]
  Ki: < 100 nM
Mus musculus
  ED50: 0.2 mg/kg

## CCCN(CCC)CCc1ccccc1O
[11]
  Ki: 400 nM

From ChEMBL document CHEMBL4007451, “The 2014 Philip S. Portoghese Medicinal Chemistry Lectureship: The "Phenylalkylaminome" with a Focus on Selected Drugs of Abuse” (J Med Chem, 2017)
